# Measured values reported in patent publication US5053337A, “DNA encoding an α2B -adrenergic receptor” (Neurogenetic Corporation, priority 1989, dated 1991).
# Key:
# [1] = target: T1, human α2B -adrenergic receptor (NGC-α2B) (Homo sapiens, UniProt P18089)
# T1 sequence (P18089 1-450): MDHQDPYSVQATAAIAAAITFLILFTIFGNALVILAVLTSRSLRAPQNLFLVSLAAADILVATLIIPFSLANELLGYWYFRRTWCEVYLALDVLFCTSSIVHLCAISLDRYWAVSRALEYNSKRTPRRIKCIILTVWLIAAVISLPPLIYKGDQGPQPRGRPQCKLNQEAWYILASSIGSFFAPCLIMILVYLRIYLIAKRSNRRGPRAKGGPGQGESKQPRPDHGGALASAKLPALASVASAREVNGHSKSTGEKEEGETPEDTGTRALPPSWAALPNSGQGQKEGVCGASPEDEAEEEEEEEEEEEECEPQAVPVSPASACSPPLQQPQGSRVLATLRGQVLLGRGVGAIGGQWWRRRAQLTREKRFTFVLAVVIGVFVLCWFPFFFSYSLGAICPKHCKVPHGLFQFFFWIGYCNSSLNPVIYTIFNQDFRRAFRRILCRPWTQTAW
# [2] = target: T1, human α2B -adrenergic receptor (NGC-α2B); test: biochemical
# [3] = target: T1, human α2B -adrenergic receptor (NGC-α2B); remark: listed apart in the source
smiles,measurement,setting,value
NCCc1c[nH]c2ccc(O)cc12 [Serotonin],inhibition,[1],15%
same,ability to compete with 3H-Rauwolscine for binding (in words),[1]; pNGC-α2B transfected Cos-7 or Ltk- cell membranes,inability
COc1cccc(OC)c1OCCNCC1COc2ccccc2O1 (centres unmarked) [WB-4101],Ki,[2],55 nM
same,nH (Hill Coefficient),[3],1.5
O=C(c1ccc(F)cc1)C1CCN(CCn2c(=O)[nH]c3ccccc3c2=O)CC1 [Ketanserin],nH (Hill Coefficient),[3],1.21 ± 0.12
